Calls of active or inactive are those of the source.
Key:
Mus musculus [1] = experiment: Anticonvulsant activity against subcutaneous metrazole-induced seizures in ip dosed albino CF1 mouse assessed as minimum effective dose after 0.5 hrs; format: functional; details: albino CF1, 0.5 h, read-out: MED
Mus musculus [2] = experiment: Anticonvulsant activity in albino CF1 mouse assessed as protection against maximal electroshock-induced seizures at 300 mg/kg, ip after 4 hrs; format: functional, organism-based; set-up: dose 300 mg/kg
Mus musculus [3] = experiment: Anticonvulsant activity ip dosed albino CF1 mouse assessed as protection against maximal electroshock-induced seizures after 0.25 hrs; format: functional
Mus musculus [4] = experiment: Protective index, ratio of TD50 for albino CF1 mouse by rotarod test to ED50 for albino CF1 mouse by subcutaneous metrazol seizures test; format: functional
Rattus norvegicus [5] = experiment: Anticonvulsant activity in albino Sprague-Dawley rat assessed as protection against maximal electroshock-induced seizures at 30 mg/kg, po after 0.25 hrs; format: functional, organism-based; set-up: dose 30 mg/kg
Mus musculus [6] = experiment: Neurotoxicity in albino CF1 mouse assessed as minimal motor impairment at 100 mg/kg, ip after 4 hrs by rotarod test; format: toxicity, organism-based; set-up: dose 100 mg/kg, route intraperitoneal; details: in vivo
Mus musculus [7] = experiment: Neurotoxicity in albino CF1 mouse assessed as minimal motor impairment at 350 mg/kg, ip after 0.25 hrs by rotarod test; format: toxicity, organism-based; set-up: dose 350 mg/kg, route intraperitoneal; details: in vivo
Mus musculus [8] = experiment: Neurotoxicity in albino CF1 mouse assessed as minimal motor impairment at 300 mg/kg, ip after 0.5 hrs by rotarod test; format: toxicity, organism-based; set-up: dose 300 mg/kg, route intraperitoneal; details: in vivo
Rattus norvegicus [9] = experiment: Anticonvulsant activity in albino Sprague-Dawley rat assessed as protection against maximal electroshock-induced seizures at 30 mg/kg, po after 2 hrs; format: functional, organism-based; set-up: dose 30 mg/kg
Mus musculus [10] = organism: Mus musculus; experiment: Protective index, ratio of TD50 for albino CF1 mouse by rotarod test to ED50 for albino CF1 mouse by maximal electroshock seizures test; format: functional
Mus musculus [11] = experiment: Anticonvulsant activity in albino CF1 mouse assessed as protection against subcutaneous metrazole-induced seizures at 100 mg/kg, ip after 0.5 hrs; format: functional, organism-based; set-up: dose 100 mg/kg
Mus musculus [12] = experiment: Neurotoxicity in ip dosed albino CF1 mouse assessed as minimum dose required to cause toxicity after 0.5 hrs by rotarod test; format: organism-based; details: in vivo
Rattus norvegicus [13] = experiment: Anticonvulsant activity in albino Sprague-Dawley rat assessed as protection against maximal electroshock-induced seizures at 30 mg/kg, po after 4 hrs; format: functional, organism-based; set-up: dose 30 mg/kg
Mus musculus [14] = experiment: Anticonvulsant activity in albino CF1 mouse assessed as protection against subcutaneous metrazole-induced seizures at 300 mg/kg, ip after 4 hrs; format: functional, organism-based; set-up: dose 300 mg/kg
Mus musculus [15] = experiment: Anticonvulsant activity in albino CF1 mouse assessed as protection against maximal electroshock-induced seizures at 100 mg/kg, ip after 0.5 hrs; format: functional, organism-based; set-up: dose 100 mg/kg
Mus musculus [16] = experiment: Anticonvulsant activity in albino CF1 mouse assessed as protection against subcutaneous metrazole-induced seizures at 30 mg/kg, ip after 4 hrs; format: functional, organism-based; set-up: dose 30 mg/kg
Mus musculus [17] = experiment: Anticonvulsant activity against maximal electroshock-induced seizures in ip dosed albino CF1 mouse assessed as minimum effective dose after 4 hrs; format: functional; details: read-out: MED
Mus musculus [18] = experiment: Anticonvulsant activity in albino CF1 mouse assessed as protection against maximal electroshock-induced seizures at 300 mg/kg, ip after 0.5 hrs; format: functional, organism-based; set-up: dose 300 mg/kg
Mus musculus [19] = experiment: Anticonvulsant activity in albino CF1 mouse assessed as protection against subcutaneous metrazole-induced seizures at 100 mg/kg, ip after 4 hrs; format: functional, organism-based; set-up: dose 100 mg/kg
Mus musculus [20] = experiment: Neurotoxicity in albino CF1 mouse assessed as minimal motor impairment at 300 mg/kg, ip after 4 hrs by rotarod test; format: toxicity, organism-based; set-up: dose 300 mg/kg, route intraperitoneal; details: in vivo
Mus musculus [21] = experiment: Anticonvulsant activity against maximal electroshock-induced seizures in ip dosed albino CF1 mouse assessed as minimum effective dose after 0.5 hrs; format: functional; details: read-out: MED
Mus musculus [22] = experiment: Anticonvulsant activity in albino CF1 mouse assessed as protection against maximal electroshock-induced seizures at 30 mg/kg, ip after 4 hrs; format: functional, organism-based; set-up: dose 30 mg/kg
Mus musculus [23] = experiment: Neurotoxicity in albino CF1 mouse assessed as minimal motor impairment at 30 mg/kg, ip after 4 hrs by rotarod test; format: toxicity, organism-based; set-up: dose 30 mg/kg, route intraperitoneal; details: in vivo
Mus musculus [24] = experiment: Neurotoxicity in ip dosed albino CF1 mouse assessed as minimal motor impairment after 0.25 hrs by rotarod test; format: toxicity, organism-based; details: in vivo
Mus musculus [25] = experiment: Anticonvulsant activity ip dosed albino CF1 mouse assessed as protection against subcutaneous metrazole-induced seizures after 0.25 hrs; format: functional; details: albino CF1, 0.25 h
Mus musculus [26] = experiment: Neurotoxicity in ip dosed albino CF1 mouse assessed as minimum dose required to cause toxicity after 4 hrs by rotarod test; format: organism-based; details: in vivo
Mus musculus [27] = experiment: Anticonvulsant activity in albino CF1 mouse assessed as protection against maximal electroshock-induced seizures at 35 mg/kg, ip after 0.25 hrs; format: functional, organism-based; set-up: dose 35 mg/kg
Rattus norvegicus [28] = experiment: Anticonvulsant activity in albino Sprague-Dawley rat assessed as protection against maximal electroshock-induced seizures at 30 mg/kg, po after 0.5 hrs; format: functional, organism-based; set-up: dose 30 mg/kg
Mus musculus [29] = experiment: Anticonvulsant activity in albino CF1 mouse assessed as protection against subcutaneous metrazole-induced seizures at 70 mg/kg, ip after 0.25 hrs; format: functional, organism-based; set-up: dose 70 mg/kg
Mus musculus [30] = experiment: Neurotoxicity in albino CF1 mouse assessed as minimal motor impairment at 70 mg/kg, ip after 0.25 hrs by rotarod test; format: toxicity, organism-based; set-up: dose 70 mg/kg, route intraperitoneal; details: in vivo
Mus musculus [31] = experiment: Anticonvulsant activity in albino CF1 mouse assessed as protection against subcutaneous metrazole-induced seizures at 30 mg/kg, ip after 0.5 hrs; format: functional, organism-based; set-up: dose 30 mg/kg
Rattus norvegicus [32] = experiment: Neurotoxicity in albino Sprague-Dawley rat assessed as minimal motor impairment at 30 mg/kg, po by rotarod test; format: toxicity, organism-based; set-up: dose 30 mg/kg, route oral; details: in vivo
Mus musculus [33] = experiment: Anticonvulsant activity in albino CF1 mouse assessed as protection against maximal electroshock-induced seizures at 70 mg/kg, ip after 0.25 hrs; format: functional, organism-based; set-up: dose 70 mg/kg
Mus musculus [34] = experiment: Neurotoxicity in albino CF1 mouse assessed as minimal motor impairment at 100 mg/kg, ip after 0.5 hrs by rotarod test; format: toxicity, organism-based; set-up: dose 100 mg/kg, route intraperitoneal; details: in vivo
Mus musculus [35] = experiment: Anticonvulsant activity in albino CF1 mouse assessed as protection against maximal electroshock-induced seizures at 30 mg/kg, ip after 0.5 hrs; format: functional, organism-based; set-up: dose 30 mg/kg
[36] = biological target: Sodium channel protein type 2 subunit alpha (Homo sapiens, UniProt Q99250); experiment: Inhibition of human NaV1.2 expressed in HEK cells at -60 mV holding potential by patch clamp recording technique; format: cell-based, HEK293
Mus musculus [37] = experiment: Anticonvulsant activity against subcutaneous metrazole-induced seizures in ip dosed albino CF1 mouse assessed as minimum effective dose after 4 hrs; format: functional; details: albino CF1, 4 h, read-out: MED
Mus musculus [38] = experiment: Neurotoxicity in albino CF1 mouse assessed as minimal motor impairment at 30 to 300 mg/kg, ip after 0.5 hrs by rotarod test; details: in vivo
Mus musculus [39] = experiment: Neurotoxicity in albino CF1 mouse assessed as minimal motor impairment at 30 mg/kg, ip after 0.5 hrs by rotarod test; format: toxicity, organism-based; set-up: dose 30 mg/kg, route intraperitoneal; details: in vivo
Mus musculus [40] = experiment: Neurotoxicity in albino CF1 mouse assessed as minimal motor impairment at 30 to 300 mg/kg, po after 4 hrs by rotarod test; format: toxicity, organism-based; set-up: dose 30-300 mg/kg, route oral; details: in vivo
Mus musculus [41] = experiment: Anticonvulsant activity in albino CF1 mouse assessed as protection against subcutaneous metrazole-induced seizures at 300 mg/kg, ip after 0.5 hrs; format: functional, organism-based; set-up: dose 300 mg/kg

Sodium channel protein type 2 subunit alpha, sequence (Q99250 whole entry): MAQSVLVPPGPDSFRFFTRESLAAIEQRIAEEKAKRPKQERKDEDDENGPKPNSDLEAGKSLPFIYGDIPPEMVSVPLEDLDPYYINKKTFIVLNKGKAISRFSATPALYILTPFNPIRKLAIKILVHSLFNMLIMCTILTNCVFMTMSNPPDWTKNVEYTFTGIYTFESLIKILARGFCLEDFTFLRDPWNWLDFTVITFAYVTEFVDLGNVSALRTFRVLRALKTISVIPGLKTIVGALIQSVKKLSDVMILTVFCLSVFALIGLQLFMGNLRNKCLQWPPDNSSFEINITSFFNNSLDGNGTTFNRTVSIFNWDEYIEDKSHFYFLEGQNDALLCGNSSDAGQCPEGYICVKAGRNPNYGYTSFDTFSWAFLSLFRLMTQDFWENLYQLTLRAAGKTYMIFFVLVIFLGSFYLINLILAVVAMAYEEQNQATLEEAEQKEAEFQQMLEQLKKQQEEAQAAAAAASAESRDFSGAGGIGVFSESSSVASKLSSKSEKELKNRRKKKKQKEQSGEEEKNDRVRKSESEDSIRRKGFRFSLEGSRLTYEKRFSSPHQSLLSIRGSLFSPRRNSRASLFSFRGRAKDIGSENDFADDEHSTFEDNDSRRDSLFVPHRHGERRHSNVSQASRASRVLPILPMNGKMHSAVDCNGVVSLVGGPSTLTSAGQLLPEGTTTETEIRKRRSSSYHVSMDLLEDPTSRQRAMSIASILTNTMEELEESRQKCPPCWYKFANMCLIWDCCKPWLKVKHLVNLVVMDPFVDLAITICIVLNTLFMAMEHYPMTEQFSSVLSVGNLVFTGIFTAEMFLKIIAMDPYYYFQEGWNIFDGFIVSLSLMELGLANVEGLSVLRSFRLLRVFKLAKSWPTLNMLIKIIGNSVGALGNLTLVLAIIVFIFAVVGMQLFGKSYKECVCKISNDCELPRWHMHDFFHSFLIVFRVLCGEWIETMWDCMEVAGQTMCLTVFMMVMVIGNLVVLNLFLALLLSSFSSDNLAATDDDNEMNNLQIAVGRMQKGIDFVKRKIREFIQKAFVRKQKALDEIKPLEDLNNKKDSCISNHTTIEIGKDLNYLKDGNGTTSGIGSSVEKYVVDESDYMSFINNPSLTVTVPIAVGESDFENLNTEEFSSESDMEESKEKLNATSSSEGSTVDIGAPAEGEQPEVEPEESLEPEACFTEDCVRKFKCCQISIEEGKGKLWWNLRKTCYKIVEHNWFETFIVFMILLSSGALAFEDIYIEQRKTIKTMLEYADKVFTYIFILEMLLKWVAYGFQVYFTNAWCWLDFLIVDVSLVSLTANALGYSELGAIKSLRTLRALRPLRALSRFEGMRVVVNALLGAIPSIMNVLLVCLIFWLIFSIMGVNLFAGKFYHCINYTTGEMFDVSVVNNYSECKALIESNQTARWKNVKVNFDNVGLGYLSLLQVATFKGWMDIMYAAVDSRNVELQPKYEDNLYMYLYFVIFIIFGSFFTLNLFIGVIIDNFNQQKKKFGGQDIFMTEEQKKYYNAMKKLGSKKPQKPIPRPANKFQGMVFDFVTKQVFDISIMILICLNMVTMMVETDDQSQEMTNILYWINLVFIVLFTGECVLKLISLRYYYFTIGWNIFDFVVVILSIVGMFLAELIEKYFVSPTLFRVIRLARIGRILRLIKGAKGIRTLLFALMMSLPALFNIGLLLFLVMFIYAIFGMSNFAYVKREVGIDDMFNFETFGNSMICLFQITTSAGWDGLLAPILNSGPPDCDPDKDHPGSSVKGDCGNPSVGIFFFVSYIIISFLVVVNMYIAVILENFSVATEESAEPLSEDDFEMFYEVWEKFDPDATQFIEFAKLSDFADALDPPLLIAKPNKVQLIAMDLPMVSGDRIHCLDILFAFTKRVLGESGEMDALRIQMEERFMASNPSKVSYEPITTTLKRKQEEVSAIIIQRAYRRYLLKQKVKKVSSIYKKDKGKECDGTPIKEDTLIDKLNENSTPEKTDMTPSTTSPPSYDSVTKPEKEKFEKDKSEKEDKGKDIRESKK

COc1ccc(-c2nc(-c3ccccc3)c[nH]2)cc1
1.4: PI (Mus musculus [4])
21.4 µM: IC50 [36]
142 mg/kg: ED50 (Mus musculus [25])
Non-toxic: Activity (Mus musculus [6]) | Activity (Mus musculus [23]) | Activity (Mus musculus [30]) | Activity (Rattus norvegicus [32]) | Activity (Mus musculus [34]) | Activity (Mus musculus [38]) | Activity (Mus musculus [39]) | Activity (Mus musculus [40])
4.3: PI (Mus musculus [10])
200.8 mg/kg: TD50 (Mus musculus [24])
100 mg/kg: minimal effective dose (Mus musculus [1]) | MED (Mus musculus [12]) | minimal effective dose (Mus musculus [17]) | MED (Mus musculus [26])
inactive: Activity (Rattus norvegicus [5]) | Activity (Rattus norvegicus [9]) | Activity (Mus musculus [11]) | Activity (Rattus norvegicus [13]) | Activity (Mus musculus [14]) | Activity (Mus musculus [16]) | Activity (Mus musculus [19]) | Activity (Mus musculus [22]) | Activity (Mus musculus [27]) | Activity (Rattus norvegicus [28]) | Activity (Mus musculus [29]) | Activity (Mus musculus [31]) | Activity (Mus musculus [35])
active: Activity (Mus musculus [2]) | Activity (Mus musculus [15]) | Activity (Mus musculus [18]) | Activity (Mus musculus [33]) | Activity (Mus musculus [41])
46.8 mg/kg: ED50 (Mus musculus [3])
Toxic: Activity (Mus musculus [7]) | Activity (Mus musculus [8]) | Activity (Mus musculus [20])
> 300 mg/kg: minimal effective dose (Mus musculus [37])
> 30 mg/kg: minimal effective dose (Mus musculus [21])
